The values that follow come from ChEMBL document CHEMBL1135518 (J Med Chem, 2002).

For assay [1], the target named is T1, Adrenergic receptor alpha-2 (Rattus norvegicus, UniProt P22086+P19328+P22909).
T1 sequence (P22086 whole entry): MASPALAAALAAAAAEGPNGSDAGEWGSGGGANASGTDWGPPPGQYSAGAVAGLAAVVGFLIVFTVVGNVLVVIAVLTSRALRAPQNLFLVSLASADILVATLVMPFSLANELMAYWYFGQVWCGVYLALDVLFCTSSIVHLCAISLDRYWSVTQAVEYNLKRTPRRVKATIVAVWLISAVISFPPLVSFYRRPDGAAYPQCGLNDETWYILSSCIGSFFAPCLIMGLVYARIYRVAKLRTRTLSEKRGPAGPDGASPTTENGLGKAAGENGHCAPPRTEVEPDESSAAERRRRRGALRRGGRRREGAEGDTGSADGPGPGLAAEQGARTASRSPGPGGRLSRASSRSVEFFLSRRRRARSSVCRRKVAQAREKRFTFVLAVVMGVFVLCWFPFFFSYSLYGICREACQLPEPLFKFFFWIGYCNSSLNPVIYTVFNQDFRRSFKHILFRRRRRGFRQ
T1 sequence (P19328 whole entry): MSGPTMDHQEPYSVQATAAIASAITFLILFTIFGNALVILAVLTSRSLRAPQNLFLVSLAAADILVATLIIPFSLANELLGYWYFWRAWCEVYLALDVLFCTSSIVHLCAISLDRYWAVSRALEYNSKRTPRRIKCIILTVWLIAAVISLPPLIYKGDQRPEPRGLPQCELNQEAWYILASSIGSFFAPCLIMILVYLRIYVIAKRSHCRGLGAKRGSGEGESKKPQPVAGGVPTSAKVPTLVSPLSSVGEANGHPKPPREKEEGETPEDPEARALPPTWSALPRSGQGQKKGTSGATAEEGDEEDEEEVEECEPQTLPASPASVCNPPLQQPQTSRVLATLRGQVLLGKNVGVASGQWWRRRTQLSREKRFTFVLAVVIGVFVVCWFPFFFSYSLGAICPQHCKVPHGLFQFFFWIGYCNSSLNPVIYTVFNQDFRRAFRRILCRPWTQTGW
T1 sequence (P22909 whole entry): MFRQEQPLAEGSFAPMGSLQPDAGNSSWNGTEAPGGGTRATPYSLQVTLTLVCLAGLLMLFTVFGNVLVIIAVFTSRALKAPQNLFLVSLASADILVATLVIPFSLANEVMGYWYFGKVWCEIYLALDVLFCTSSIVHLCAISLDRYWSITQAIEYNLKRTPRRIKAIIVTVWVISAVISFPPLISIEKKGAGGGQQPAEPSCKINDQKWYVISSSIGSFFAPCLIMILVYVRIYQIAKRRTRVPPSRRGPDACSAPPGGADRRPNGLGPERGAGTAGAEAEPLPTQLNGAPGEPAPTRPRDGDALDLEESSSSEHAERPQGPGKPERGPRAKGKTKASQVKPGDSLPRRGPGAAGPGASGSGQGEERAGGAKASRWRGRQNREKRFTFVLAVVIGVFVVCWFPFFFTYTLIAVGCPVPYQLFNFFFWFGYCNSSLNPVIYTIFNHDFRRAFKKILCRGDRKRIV
In words: The binding affinity at the Alpha-2 adrenergic receptor determined using [3H]RX-821002. It is filed as protein assay.

The test system of assay [2] is Rattus norvegicus. Nature of the assay: The increase in the extracellular levels of 5-HIAA in the rat ventral hippocampus at a dose of 2.5 mg/kg sc measured by in vivo microdialysis. The following applies: route subcutaneous. It is filed as functional.
Assay [3] has as its system Rattus norvegicus. In words: The increase in the extracellular levels of DOPAC in the rat ventral hippocampus at a dose of 2.5 mg/kg sc measured by in vivo microdialysis. Type of assay: functional. The following applies: route subcutaneous.
For assay [4], the system named is Rattus norvegicus. In words: The increase in the extracellular levels of 5-HT in the rat ventral hippocampus at a dose of 2.5 mg/kg sc measured by in vivo microdialysis. The following applies: route subcutaneous. Type of assay: functional.
Assay [5] addresses T2, 5-hydroxytryptamine receptor 2C (Rattus norvegicus, UniProt P08909).
T2 sequence (P08909 whole entry): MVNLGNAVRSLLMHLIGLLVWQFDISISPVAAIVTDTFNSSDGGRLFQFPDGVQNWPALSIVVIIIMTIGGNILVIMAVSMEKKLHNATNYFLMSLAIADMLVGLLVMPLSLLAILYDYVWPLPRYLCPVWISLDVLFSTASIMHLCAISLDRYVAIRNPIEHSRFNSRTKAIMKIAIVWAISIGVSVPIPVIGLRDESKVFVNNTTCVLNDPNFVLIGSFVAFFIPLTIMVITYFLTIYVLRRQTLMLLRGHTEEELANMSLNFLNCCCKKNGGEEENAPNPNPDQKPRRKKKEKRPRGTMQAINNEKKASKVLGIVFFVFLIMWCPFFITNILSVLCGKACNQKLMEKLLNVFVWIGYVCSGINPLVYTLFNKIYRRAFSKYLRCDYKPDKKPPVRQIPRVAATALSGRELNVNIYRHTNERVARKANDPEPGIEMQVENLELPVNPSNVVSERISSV
In words: The binding affinity at 5-hydroxytryptamine 2C receptor was determined using [3H]mesulergine.

In assay [6] the target is T3, Serotonin 3 (5-HT3) receptor (Rattus norvegicus, UniProt P35563+Q9JJ16).
T3 sequence (P35563 whole entry): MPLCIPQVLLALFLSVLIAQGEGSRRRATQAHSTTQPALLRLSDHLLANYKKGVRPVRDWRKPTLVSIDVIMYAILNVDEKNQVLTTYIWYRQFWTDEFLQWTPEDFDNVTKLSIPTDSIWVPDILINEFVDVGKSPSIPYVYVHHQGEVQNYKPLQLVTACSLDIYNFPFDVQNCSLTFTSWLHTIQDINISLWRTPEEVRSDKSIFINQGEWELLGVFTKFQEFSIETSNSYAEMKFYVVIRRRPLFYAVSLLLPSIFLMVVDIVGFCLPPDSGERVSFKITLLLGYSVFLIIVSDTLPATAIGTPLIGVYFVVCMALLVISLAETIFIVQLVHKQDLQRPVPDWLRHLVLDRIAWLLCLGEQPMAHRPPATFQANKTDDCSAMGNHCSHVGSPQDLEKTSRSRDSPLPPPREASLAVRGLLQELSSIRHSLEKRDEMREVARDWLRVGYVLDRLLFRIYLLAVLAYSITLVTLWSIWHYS
T3 sequence (Q9JJ16 whole entry): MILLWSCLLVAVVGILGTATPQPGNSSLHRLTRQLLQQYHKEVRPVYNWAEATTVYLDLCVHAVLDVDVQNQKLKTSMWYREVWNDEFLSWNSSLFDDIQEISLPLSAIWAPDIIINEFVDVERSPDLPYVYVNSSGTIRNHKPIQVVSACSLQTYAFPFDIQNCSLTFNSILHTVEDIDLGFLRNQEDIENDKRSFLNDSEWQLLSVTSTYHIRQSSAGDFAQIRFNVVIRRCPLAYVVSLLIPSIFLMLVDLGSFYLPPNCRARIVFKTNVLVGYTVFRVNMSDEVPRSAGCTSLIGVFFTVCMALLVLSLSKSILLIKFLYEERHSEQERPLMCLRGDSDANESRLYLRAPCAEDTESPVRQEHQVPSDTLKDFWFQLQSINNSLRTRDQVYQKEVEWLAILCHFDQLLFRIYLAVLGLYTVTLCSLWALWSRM
In words: The binding affinity at 5-hydroxytryptamine 3 receptor was determined using [3H]LY-278584. Type of assay: protein-complex assay.

Molecules are shown by their SMILES.

On to `COc1cccc2c1N1CCN(C)C[C@@H]1c1ccccc1C2`, for which the Ki is 73 nM in assay [1], 0.16 nM in assay [5] and over 5000 nM in assay [6]. Moreover, the results for the Increase in assay [2], in assay [3] and in assay [4] were 120%, 130% and 200%, respectively.

Turning to `COc1cccc2c1N1CCN(C)C[C@H]1c1ccccc1C2`, the inhibition constant (Ki) was found to be 37 nM in assay [1], 0.39 nM in assay [5] and 1650 nM in assay [6]. Besides, the Increase was 120% in assay [2], 160% in assay [3] and 200% in assay [4].

Consider `COc1cccc2c1N1CCN(C)CC1c1ccccc1C2` (racemic), for which the values for the Ki in assay [5] and in assay [6] were 0.21 nM and 2900 nM, respectively.

Usually Ki stands for a dissociation constant, usually derived from enzyme kinetics or from competition with a known ligand. A low value points to higher affinity.
